Assay results as given in patent publication US20220361497A1, “METHOD FOR CONTROLLING GROWTH OF MICROORGANISMS AND/OR BIOFILMS IN AN INDUSTRIAL PROCESS” (Kemira Oyj, priority 2017, published 2022).

How the values were obtained:
Format in all cases: cell-based
[1] = system: Pseudoxanthomonas taiwanensis biofilms; assay: Removal of existing (preformed) biofilm, 96-microwell plate with peg lids, Crystal Violet staining; details: SPW; for Biofilm quantity after 48 h pre-growth and 24 h contact time, Abs. at 595 nm / Biofilm reduction after 48 h pre-growth and 24 h contact time: 45° C., 150 rpm
Excerpt: (§1) Pure cultures of Meiothermus silvanus, a microbe species commonly found in paper machine biofilms (Ekman J, Journal of Industrial Microbiology & Biotechnology 34:203-211) and Pseudoxanthomonas taiwanensis, another species commonly found in paper machine environments (Desjardins, E & Beaulieu, C, Journal of Industrial Microbiology & Biotechnology 30:141-145) were used to study the efficacy of various chemicals to prevent biofilm formation.
(§2) Biofilm tests were done in either synthetic commercial R2-broth (Lab M Ltd, UK) or fibre-containing synthetic paper machine water, SPW (prepared according to Peltola et al., J. Ind. Microbiol. Biotechnol. 2011, 38: 1719-1727) using 96-microwell plate wells with peg lids (Thermo Fischer Scientific Inc., USA). Plates were incubated at 45° C. with a rotary shaking (150 rpm) providing high flow in each well.
(§3) For experiments of removing already existing (preformed) biofilm wells of 96-microwell plates with peg-lids were filled with SPW, inoculated with the pure bacterial cultures. Biofilm was grown for 24 hours without addition of any chemical compound to be tested. In some experiments after 24 hours the procedure was repeated by emptying the wells and by addition of a fresh solution of SPW inoculated with pure bacterial culture, again without any test chemical compound. The original peg-lid was put back in place and biofilm was allowed to grow for additional 24 h, i.e., in total 48 h.
(§4) After 24 or 48 hours after starting the test, the wells were emptied and a fresh solution of SPW, inoculated with the pure bacterial cultures and with different amounts of chemical compounds to be tested were added and the original peg-lid was placed back in place. After an additional 2 or 24 hours the wells were emptied, rinsed and the peg lid and wells were left to dry.
(§5) The amount of biofilm formed on the microwells, and peg surfaces was quantified with a staining solution by adding 200 μl of 1% Crystal Violet (Merck Millipore KGaA, Germany) in methanol to each well and placing the peg-lid back on. After 3 minutes the wells were emptied, and the wells and pegs were rinsed 3 times with tap water. The attached Crystal Violet was dissolved into ethanol and the absorbance at 595 nm was measured. The values shown in the following tables are average absorbance from 8 replicate wells and pegs.
(§6) All absorbance values in Examples 1-6 are given actual measured values. In calculation for biofilm reduction percentages it was taken in account that the SPW alone for 2 days without any bacterial inoculum gave a background value of 0.14.

[2] = system: Meiothermus silvanus biofilms; assay: as above; details: SPW, 45° C., 150 rpm; for Biofilm quantity after 24 h pre-growth and 24 h contact time, Abs. at 595 nm / Biofilm reduction after 24 h pre-growth and 24 h contact time: separated isomer
Excerpt: as §1, §2, §3, §4, §5, §6

[3] = system: Pseudoxanthomonas taiwanensis biofilms; assay: Prevention of biofilm formation, 96-microwell plate with peg lids, Crystal Violet staining; details: for Biofilm quantity after 48 h contact time, Abs. at 595 nm / Biofilm reduction after 48 h contact time: SPW, 45° C., 150 rpm
Excerpt: as §1, §2
(§7) For experiments of preventing biofilm formation wells of 96-microwell plates with peg-lids were filled with R2-broth or SPW, inoculated with the pure bacterial cultures and treated with different amounts of chemical compounds to be tested. Peg-lid was put on. After 24 hours the wells were emptied and a fresh solution of pure culture containing SPW or R2 broth with different amounts of test chemicals were added to the wells and the original peg-lid was put back in place. After an additional 24 hours, i.e., 48 hours after starting the test, the wells were emptied, rinsed and the peg lid and wells were left to dry.
as §5, §6

[4] = system: Meiothermus silvanus biofilms; assay: as above; details: for Biofilm quantity after 48 h contact time, Abs. at 595 nm / Biofilm reduction after 48 h contact time / Biofilm quantity after 48 h contact time in SPW, Abs. at 595 nm / Biofilm reduction after 48 h contact time in SPW: SPW; for Biofilm quantity after 48 h contact time, Abs. at 595 nm / Biofilm reduction after 48 h contact time: 45° C., 150 rpm
Excerpt: as §1, §2, §7, §5, §6

[5] = Compound B dosage 0.25 mg/l active
[6] = Compound B dosage 1 mg/l active
[7] = Compound B dosage 3 mg/l active
[8] = Compound B dosage 10 mg/l active
[9] = Compound B dosage 0.1 mg/l active
[10] = separated isomer, dosage 0.1 mg/l active
[11] = separated isomer, dosage 0.2 mg/l active

Cc1ccc(S(=O)(=O)C=CC#N)cc1 [Compound A, 3-[(4-methylphenyl)sulfonyl]-2-propenenitrile]
Biofilm quantity after 48 h pre-growth and 24 h contact time, Abs. at 595 nm ([1]; dosage 0.2 mg/l active): 1.73 | Biofilm reduction after 48 h pre-growth and 24 h contact time ([1]; dosage 0.2 mg/l active): 32.2% | Biofilm quantity after 48 h pre-growth and 24 h contact time, Abs. at 595 nm ([1]; dosage 0.5 mg/l active): 0.13 | Biofilm reduction after 48 h pre-growth and 24 h contact time ([1]; dosage 0.5 mg/l active): 100.2% | removal of already formed biofilm (in words) ([1]; single dosage of 0.5 mg/l active compound, 48-hour pre-growth, 24 hours after addition): removed all of the biofilm | Biofilm quantity after 48 h pre-growth and 2 h contact time, Abs. at 595 nm ([2]; dosage 0.5 mg/l active): 1.20 | Biofilm reduction after 48 h pre-growth and 2 h contact time ([2]; dosage 0.5 mg/l active): 8.0% | Biofilm quantity after 48 h pre-growth and 2 h contact time, Abs. at 595 nm ([2]; dosage 1 mg/l active): 1.11 | Biofilm reduction after 48 h pre-growth and 2 h contact time ([2]; dosage 1 mg/l active): 16.3% | Biofilm quantity after 48 h pre-growth and 2 h contact time, Abs. at 595 nm ([2]; dosage 2 mg/l active): 0.99 | Biofilm reduction after 48 h pre-growth and 2 h contact time ([2]; dosage 2 mg/l active): 26.6% | Biofilm quantity after 48 h contact time, Abs. at 595 nm ([3]; dosage 0.01 mg/l active): 1.42 | Biofilm reduction after 48 h contact time ([3]; dosage 0.01 mg/l active): 4.5% | Biofilm quantity after 48 h contact time, Abs. at 595 nm ([3]; dosage 0.03 mg/l active): 1.26 | Biofilm reduction after 48 h contact time ([3]; dosage 0.03 mg/l active): 16.4% | Biofilm quantity after 48 h contact time, Abs. at 595 nm ([3]; dosage 0.08 mg/l active): 0.88 | Biofilm reduction after 48 h contact time ([3]; dosage 0.08 mg/l active): 44.8% | Biofilm quantity after 48 h contact time, Abs. at 595 nm ([3]; dosage 0.13 mg/l active): 0.55 | Biofilm reduction after 48 h contact time ([3]; dosage 0.13 mg/l active): 69.4% | Biofilm quantity after 48 h contact time, Abs. at 595 nm ([3]; dosage 0.20 mg/l active): 0.39 | Biofilm reduction after 48 h contact time ([3]; dosage 0.20 mg/l active): 81.3% | Biofilm quantity after 48 h contact time, Abs. at 595 nm ([4]; dosage 0.01 mg/l active): 0.80 | Biofilm reduction after 48 h contact time ([4]; dosage 0.01 mg/l active): 21.4% | Biofilm quantity after 48 h contact time, Abs. at 595 nm ([4]; dosage 0.03 mg/l active): 0.75 | Biofilm reduction after 48 h contact time ([4]; dosage 0.03 mg/l active): 27.4% | Biofilm quantity after 48 h contact time, Abs. at 595 nm ([4]; dosage 0.08 mg/l active): 0.58 | Biofilm reduction after 48 h contact time ([4]; dosage 0.08 mg/l active): 47.6% | Biofilm quantity after 48 h contact time, Abs. at 595 nm ([4]; dosage 0.13 mg/l active): 0.22 | Biofilm reduction after 48 h contact time ([4]; dosage 0.13 mg/l active): 90.5% | Biofilm quantity after 48 h contact time, Abs. at 595 nm ([4]; dosage 0.20 mg/l active): 0.15 | Biofilm reduction after 48 h contact time ([4]; dosage 0.20 mg/l active): 98.8% | biofilm reduction effect ([4]; dosage of 0.13 mg/l active, synthetic paper machine water, high temperature, fibres present, high flow): over 90%

Nc1ccc(S(=O)(=O)Nc2nccs2)cc1 [Compound B, 4-amino-N-2-thiazolyl-benzenesulphonamide]
Biofilm quantity after 48 h contact time, Abs. at 595 nm [3, 5]: 2.35 | Biofilm reduction after 48 h contact time [3, 5]: 2.6% | Biofilm quantity after 48 h contact time, Abs. at 595 nm [3, 6]: 2.04 | Biofilm reduction after 48 h contact time [3, 6]: 16.3% | Biofilm quantity after 48 h contact time, Abs. at 595 nm [3, 7]: 0.84 | Biofilm reduction after 48 h contact time [3, 7]: 69.3% | Biofilm quantity after 48 h contact time, Abs. at 595 nm [3, 8]: 0.54 | Biofilm reduction after 48 h contact time [3, 8]: 82.4% | Biofilm quantity after 48 h contact time, Abs. at 595 nm [4, 9]: 0.62 | Biofilm reduction after 48 h contact time [4, 9]: 34.4% | Biofilm quantity after 48 h contact time, Abs. at 595 nm [4, 5]: 0.18 | Biofilm reduction after 48 h contact time [4, 5]: 94.0% | Biofilm quantity after 48 h contact time, Abs. at 595 nm [4, 6]: 0.15 | Biofilm reduction after 48 h contact time [4, 6]: 99.1% | Biofilm quantity after 48 h contact time, Abs. at 595 nm [4, 7]: 0.16 | Biofilm reduction after 48 h contact time [4, 7]: 97.9% | Biofilm quantity after 48 h contact time, Abs. at 595 nm [4, 8]: 0.18 | Biofilm reduction after 48 h contact time [4, 8]: 94.0%

N#CC(Br)(Br)C(N)=O [DBNPA, 2,2-dibromo-3-nitrilopropionamide, reference compound]
dosage required to reach same (over 90%) biofilm reduction efficacy ([4]; active compound, synthetic paper machine water, high temperature, fibres present, high flow): 1 mg/L

Cc1ccc(S(=O)(=O)C=CC#N)cc1 [E-isomer of Compound A, 3-[(4-methylphenyl)sulfonyl]-2-propenenitrile]
Biofilm quantity after 24 h pre-growth and 24 h contact time, Abs. at 595 nm ([2]; dosage 0.2 mg/l active): 0.90 | Biofilm reduction after 24 h pre-growth and 24 h contact time ([2]; dosage 0.2 mg/l active): 67.6% | Biofilm quantity after 24 h pre-growth and 24 h contact time, Abs. at 595 nm ([2]; dosage 1 mg/l active): 0.26 | Biofilm reduction after 24 h pre-growth and 24 h contact time ([2]; dosage 1 mg/l active): 95.0% | Biofilm quantity after 48 h contact time, Abs. at 595 nm [3, 10]: 0.36 | Biofilm reduction after 48 h contact time [3, 10]: 90.6% | Biofilm quantity after 48 h contact time, Abs. at 595 nm [3, 11]: 0.16 | Biofilm reduction after 48 h contact time [3, 11]: 99.1% | Biofilm quantity after 48 h contact time, Abs. at 595 nm [4, 10]: 0.40 | Biofilm reduction after 48 h contact time [4, 10]: 88.9% | Biofilm quantity after 48 h contact time, Abs. at 595 nm [4, 11]: 0.16 | Biofilm reduction after 48 h contact time [4, 11]: 99.3%

Gramicidin [reference compound]
Biofilm quantity after 48 h contact time in SPW, Abs at 595 nm ([3]; Gramicidin dosage 3 mg/l): 2.25 | Biofilm reduction after 48 h contact time in SPW ([3]; Gramicidin dosage 3 mg/l): 5.4% | Biofilm quantity after 48 h contact time in SPW, Abs at 595 nm ([3]; Gramicidin dosage 10 mg/l): 2.41 | Biofilm reduction after 48 h contact time in SPW ([3]; Gramicidin dosage 10 mg/l): −1.8% | Biofilm quantity after 48 h contact time in SPW, Abs at 595 nm ([3]; Gramicidin dosage 25 mg/l): 2.42 | Biofilm reduction after 48 h contact time in SPW ([3]; Gramicidin dosage 25 mg/l): −2.2% | Biofilm quantity after 48 h contact time in SPW, Abs. at 595 nm ([4]; Gramicidin dosage 0.2 mg/l): 1.33 | Biofilm reduction after 48 h contact time in SPW ([4]; Gramicidin dosage 0.2 mg/l): 2.5% | Biofilm quantity after 48 h contact time in SPW, Abs. at 595 nm ([4]; Gramicidin dosage 1 mg/l): 1.41 | Biofilm reduction after 48 h contact time in SPW ([4]; Gramicidin dosage 1 mg/l): −4.1% | Biofilm quantity after 48 h contact time in SPW, Abs. at 595 nm ([4]; Gramicidin dosage 3 mg/l): 0.45 | Biofilm reduction after 48 h contact time in SPW ([4]; Gramicidin dosage 3 mg/l): 74.6% | Biofilm quantity after 48 h contact time in SPW, Abs. at 595 nm ([4]; Gramicidin dosage 10 mg/l): 0.19 | Biofilm reduction after 48 h contact time in SPW ([4]; Gramicidin dosage 10 mg/l): 95.9%

Cc1ccc(S(=O)(=O)C=CC#N)cc1 [Z-isomer of Compound A, 3-[(4-methylphenyl)sulfonyl]-2-propenenitrile]
Biofilm quantity after 24 h pre-growth and 24 h contact time, Abs. at 595 nm ([2]; dosage 0.2 mg/l active): 0.81 | Biofilm reduction after 24 h pre-growth and 24 h contact time ([2]; dosage 0.2 mg/l active): 71.3% | Biofilm quantity after 24 h pre-growth and 24 h contact time, Abs. at 595 nm ([2]; dosage 1 mg/l active): 0.27 | Biofilm reduction after 24 h pre-growth and 24 h contact time ([2]; dosage 1 mg/l active): 94.6% | Biofilm quantity after 48 h contact time, Abs. at 595 nm [3, 10]: 0.16 | Biofilm reduction after 48 h contact time [3, 10]: 99.3% | Biofilm quantity after 48 h contact time, Abs. at 595 nm [3, 11]: 0.16 | Biofilm reduction after 48 h contact time [3, 11]: 99.3% | Biofilm quantity after 48 h contact time, Abs. at 595 nm [4, 10]: 0.16 | Biofilm reduction after 48 h contact time [4, 10]: 99.1% | Biofilm quantity after 48 h contact time, Abs. at 595 nm [4, 11]: 0.15 | Biofilm reduction after 48 h contact time [4, 11]: 99.4%
